Measurements taken from patent publication US10064901B2, “Compositions and methods” (priority 2013, dated 2018).
≈ marks a conversion by molar mass, not a printed value. Read-outs that look alike come from different tables or passages of the source.

Key:
M. morganii isolates = experiment: microbe, parasite or virus in culture; assay type: cell-based; conditions: Morganella morganii
P. pennerii isolates = experiment: organism not typed; assay type: cell-based, Proteus pennerii
[1] = assay type: in vivo, human
ethanol treated spores = assay type: cell-based; conditions: lysozyme addition to the plates (2 ug/ml); Sweet B or M2GSC media (FIG. 14)
[2] = 10 patients with recurrent C. difficile treated with ethanol treated spore preparations

Compound	% of Patients OTU Engrafts [1, 2] [%]	further results
C[C@@H](O)[C@H]1C(=O)N2C(C(=O)O)=C(SCCN=CN)C[C@H]12 [imipenem]		MIC (M. morganii isolates): 2 to 4 µg/mL (≈ 6.68 to 13.4 µM); MIC (P. pennerii isolates): 4 to 8 µg/mL (≈ 13.4 to 26.7 µM)
Bacteroides_fragilis	30	
Clostridium_bartlettii	70	
Clostridium_butyricum		% of Patients OTU Engrafts ([1]; human, in vivo): 20%
Clostridium_clostridioforme	60	
Clostridium_disporicum	30	
Clostridium_mayombei	50	
Clostridium_symbiosum	50	
lysozyme		effect on germination (ethanol treated spores): small effect
